Test results published in patent US20080090906A1, “Use of Acetyl L-Carnitine In Combination With Propionyl L-Carnitine and Sildenafil for the Treatment of Erectile Dysfunction” (SIGMA-TAU INDUSTRIE FARMACEUTICHE RIUNITE S.P.A., priority 2004, published 2008).

Tests used:
[1] = tested on: Patients undergoing radical retropubic prostatectomy (rrp) without bilateral sparing of the neurovascular bundles; test: Clinical trial: recording of nocturnal penile tumescence (NPT) with RigiScan, rrp patients; format: in vivo, human; conditions: rrp patients without nerve sparing, total duration over three nights
Description: (§1) To assess the activity of the combination according to the invention for the treatment of erectile dysfunction, a randomised, double-blind placebo-controlled clinical trial was conducted.
(§2) The patients entered into the trial had to meet the following inclusion criteria: • erectile dysfunction secondary to radical retropubic prostatectomy, with or without bilateral sparing of the neurovascular bundles, in patients in whom the prostatectomy had been performed at least 6 months but less than 2 years prior to entry into the clinical trial; • complete erectile function prior to the prostatectomy (this information had to be confirmed by the partner or documented in the patient's hospital file; • not on medical treatment for prostate cancer; • not on treatment for erectile dysfunction before or after prostatectomy; • normal total and free prostate antigen values; • involvement in a heterosexual relationship for at least 6 months prior to surgery.
(§3) The patients recruited into the study were divided into two main groups on the basis of whether or not they had undergone bilateral nerve sparing surgery (rrp and bnsrrp).
(§4) These two groups were further subdivided into the following subsets:
(§5) c) sildenafil 100 mg+propionyl L-carnitine 2 g+acetyl L-carnitine 2 g;
(§6) d) propionyl L-carnitine 2 g;
(§7) e) acetyl L-carnitine 2 g.
(§8) f) propionyl L-carnitine 2 g+acetyl L-carnitine 2 g;
(§9) g) sildenafil 100 mg+propionyl L-carnitine 2 g;
(§10) h) sildenafil 100 mg+acetyl L-carnitine 2 g.
(§11) The carnitines (acetyl L-carnitine and propionyl L-carnitine) were administered orally twice daily (1 g×2/day).
(§12) Sildenafil was administered (as required) and taken 1-2 hours before sexual intercourse at a dose of 100 mg.
(§13) The placebo was administered in the place of acetyl L-carnitine and/or propionyl L-carnitine and/or sildenafil.
(§14) After 4 months' treatment the following variables were analysed:
(§15) 5. recording of nocturnal penile tumescence (NPT) [evaluated with RigiScan (Dacomed-Minnesota). A >70% increase in rigidity compared to baseline at the base of the penis and >60% at the upper end of the penis, a >2 cm increase in circumference at the upper end of the penis and >3 cm at the base were considered “complete erection”. The total duration (minutes) of the recording period on three nights was assessed.

[2] = tested on: Patients undergoing bilateral nerve-sparing radical retropubic prostatectomy (bnsrrp); test: Clinical trial: recording of nocturnal penile tumescence (NPT) with RigiScan, bnsrrp patients; format: in vivo, human; conditions: total duration over three nights
Description: as §1, §2, §3, §4, §5, §6, §7, §8, §9, §10, §11, §12, §13, §14, §15

[3] = tested on: Patients undergoing radical retropubic prostatectomy (rrp) without bilateral sparing of the neurovascular bundles; test: Randomised, double-blind placebo-controlled clinical trial: IIEF-15 scores after 4 months' treatment, rrp patients; format: in vivo, human; conditions: rrp patients without nerve sparing
Description: as §1, §2, §3, §4, §5, §6, §7, §8, §9, §10, §11, §12, §13, §14
(§16) 1. erectile function (evaluated by “IIEF-15” scores: IIEF=International Index of Erectile Function);
(§17) 2. satisfaction with sexual intercourse (IIEF-15);
(§18) 4. general sexual well-being (IIEF-15);

[4] = tested on: Patients undergoing bilateral nerve-sparing radical retropubic prostatectomy (bnsrrp); test: Randomised, double-blind placebo-controlled clinical trial: IIEF-15 scores after 4 months' treatment, bnsrrp patients; format: in vivo, human
Description: as §1, §2, §3, §4, §5, §6, §7, §8, §9, §10, §11, §12, §13, §14, §16, §17, §18

patients undergoing rrp = conditions: cited from earlier work
[5] = tested on: patients undergoing bnsrrp; conditions: cited from earlier work
[6] = after therapy (4 months' treatment)

SMILES | Recording of nocturnal penile tumescence (NPT), mean ± s.d. [1, 6] [min] | Recording of nocturnal penile tumescence (NPT), mean ± s.d. ([1]; before therapy (baseline)) [min] | Recording of nocturnal penile tumescence (NPT), mean ± s.d. [2, 6] [min] | Recording of nocturnal penile tumescence (NPT), mean ± s.d. ([2]; before therapy (baseline)) [min] | Erectile function, mean ± s.d. [3, 6] [IIEF 15 score] | General sexual well-being, mean ± s.d. [3, 6] [IIEF 15 score] | Orgasm, mean ± s.d. [3, 6] [IIEF 15 score] | Satisfaction with sexual intercourse, mean ± s.d. [3, 6] [IIEF 15 score] | Erectile function, mean ± s.d. ([3]; before therapy (baseline)) [IIEF 15 score] | General sexual well-being, mean ± s.d. ([3]; before therapy (baseline)) [IIEF 15 score] | Orgasm, mean ± s.d. ([3]; before therapy (baseline)) [IIEF 15 score] | Satisfaction with sexual intercourse, mean ± s.d. ([3]; before therapy (baseline)) [IIEF 15 score] | Erectile function, mean ± s.d. [4, 6] [IIEF 15 Score] | General sexual well-being, mean ± s.d. [4, 6] [IIEF 15 score] | Orgasm, mean ± s.d. [4, 6] [IIEF 15 score] | Satisfaction with sexual intercourse, mean ± s.d. [4, 6] [IIEF 15 score] | Erectile function, mean ± s.d. ([4]; before therapy (baseline)) [IIEF 15 Score] | General sexual well-being, mean ± s.d. ([4]; before therapy (baseline)) [IIEF 15 score] | Orgasm, mean ± s.d. ([4]; before therapy (baseline)) [IIEF 15 score] | Satisfaction with sexual intercourse, mean ± s.d. ([4]; before therapy (baseline)) [IIEF 15 score] | further results
CC(=O)O[C@H](CC(=O)[O-])C[N+](C)(C)C [Acetyl L-carnitine 2 g, acetyl L-carnitine] | 38.2 ± 5.7 | 37.7 ± 8.8 | 79.0 ± 12.3 | 70.8 ± 14.9 | 4.1 ± 1.0 | 1.2 ± 0.5 | 0.9 ± 0.4 | 1.9 ± 0.6 | 3.2 ± 1.1 | 1.0 ± 0.4 | 0.8 ± 0.6 | 1.8 ± 0.8 | 17.2 ± 3.5 | 3.9 ± 1.1 | 4.0 ± 0.9 | 4.0 ± 1.1 | 11.3 ± 3.8 | 2.9 ± 1.0 | 3.2 ± 1.1 | 3.1 ± 1.1 | 
CCC(=O)O[C@H](CC(=O)[O-])C[N+](C)(C)C [Propionyl L-carnitine 2 g, propionyl L-carnitine] | 36.4 ± 5.3 | 35.0 ± 9.1 | 77.1 ± 16.1 | 68.2 ± 13.5 | 4.0 ± 1.1 | 1.4 ± 0.5 | 1.0 ± 0.3 | 1.9 ± 0.6 | 3.3 ± 1.1 | 1.3 ± 0.5 | 0.7 ± 0.3 | 1.7 ± 0.4 | 18.1 ± 3.2 | 4.1 ± 0.9 | 4.1 ± 1.1 | 3.9 ± 1.1 | 12.2 ± 3.9 | 2.9 ± 1.6 | 3.0 ± 1.1 | 3.2 ± 1.2 | 
CCCc1nn(C)c2c(=O)[nH]c(-c3cc(S(=O)(=O)N4CCN(C)CC4)ccc3OCC)nc12 [Sildenafil 100 mg, sildenafil] | 39.1 ± 7.9 | 37.1 ± 8.5 | 85.9 ± 14.3 | 70.4 ± 13.2 | 9.2 ± 1.9 | 2.4 ± 2.0 | 2.2 ± 0.9 | 2.9 ± 1.6 | 3.8 ± 2.9 | 1.1 ± 0.8 | 0.9 ± 0.6 | 1.3 ± 0.8 | 21.7 ± 6.8 | 5.4 ± 2.7 | 5.9 ± 2.9 | 4.8 ± 2.5 | 11.9 ± 4.0 | 2.7 ± 1.0 | 3.0 ± 0.9 | 3.1 ± 1.1 | Patients with recovery of sexual function (patients undergoing rrp): approximately 15%; Patients with recovery of sexual function [5]: approximately 45%
